This assay concerns the target T1, wild-type FLT3 phosphorylation in Baf3 FLT3 cells (Homo sapiens, UniProt P36888).
T1 sequence (P36888 27-993): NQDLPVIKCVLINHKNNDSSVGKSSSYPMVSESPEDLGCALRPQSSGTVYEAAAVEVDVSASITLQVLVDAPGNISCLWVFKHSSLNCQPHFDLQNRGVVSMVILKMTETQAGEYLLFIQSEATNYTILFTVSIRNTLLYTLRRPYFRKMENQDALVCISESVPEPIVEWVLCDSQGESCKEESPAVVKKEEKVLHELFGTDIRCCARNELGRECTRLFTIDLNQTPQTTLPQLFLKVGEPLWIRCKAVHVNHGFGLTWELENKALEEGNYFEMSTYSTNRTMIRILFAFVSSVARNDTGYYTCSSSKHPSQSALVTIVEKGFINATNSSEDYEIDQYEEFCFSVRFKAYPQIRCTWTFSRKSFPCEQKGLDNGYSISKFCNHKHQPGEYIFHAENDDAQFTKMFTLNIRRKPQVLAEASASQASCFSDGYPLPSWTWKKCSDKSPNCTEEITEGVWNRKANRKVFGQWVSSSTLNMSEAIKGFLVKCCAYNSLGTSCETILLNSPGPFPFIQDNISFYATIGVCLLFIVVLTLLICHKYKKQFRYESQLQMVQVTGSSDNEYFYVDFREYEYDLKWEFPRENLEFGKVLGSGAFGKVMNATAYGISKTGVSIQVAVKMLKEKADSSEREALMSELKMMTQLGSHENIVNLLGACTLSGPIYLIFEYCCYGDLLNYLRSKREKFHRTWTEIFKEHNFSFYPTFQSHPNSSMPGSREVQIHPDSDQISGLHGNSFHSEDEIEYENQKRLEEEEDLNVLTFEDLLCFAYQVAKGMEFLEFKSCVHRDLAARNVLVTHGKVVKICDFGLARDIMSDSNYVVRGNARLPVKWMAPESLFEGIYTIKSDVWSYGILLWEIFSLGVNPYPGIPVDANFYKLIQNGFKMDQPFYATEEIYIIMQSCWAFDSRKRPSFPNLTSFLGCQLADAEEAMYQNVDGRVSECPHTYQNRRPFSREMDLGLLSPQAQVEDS
Nature of the assay: Cell-Based FLT3 Receptor Elisa. Particulars: 1 hour compound, 100 ng/mL Flt ligand 10 min; uncertainty ±20%. How it is done: Cell-Based FLT3 Receptor Elisa
Specific cellular inhibition of FLT ligand-induced wild-type FLT3 phosphorylation was measured in the following manner: Baf3 FLT3 cells overexpressing the FLT3 receptor were obtained from Dr. Michael Heinrich (Oregon Health and Sciences University). The Baf3 FLT3 cell lines were created by stable transfection of parental Baf3 cells (a murine B cell lymphoma line dependent on the cytokine IL-3 for growth) with wild-type FLT3. Cells were selected for their ability to grow in the absence of IL-3 and in the presence of FLT3 ligand.
Baf3 cells were maintained in RPMI 1640 with 10% FBS, penn/strep and 10 ng/ml FLT ligand at 37° C., 5% CO2. To measure direct inhibition of the wild-type FLT3 receptor activity and phosphorylation a sandwich ELISA method was developed similar to those developed for other RTKs (see Sadick, M D, Sliwkowski, M X, Nuijens, A, Bald, L, Chiang, N, Lofgren, J A, Wong W L T. Analysis of Heregulin-Induced ErbB2 Phosphorylation with a High-Throughput Kinase Receptor Activation Enzyme-Linked Immunsorbent Assay, Analytical Biochemistry. 1996; 235:207-214 and Baumann C A, Zeng L, Donatelli R R, Maroney A C. Development of a quantitative, high-throughput cell-based enzyme-linked immunosorbent assay for detection of colony-stimulating factor-1 receptor tyrosine kinase inhibitors. J Biochem Biophys Methods. 2004; 60:69-79.). 200 μL of Baf3FLT3 cells (1×10^6/mL) were plated in 96 well dishes in RPMI 1640 with 0.5% serum and 0.01 ng/mL IL-3 for 16 hours prior to 1 hour compound or DMSO vehicle incubation. Cells were treated with 100 ng/mL Flt ligand (R&D Systems Cat# 308-FK) for 10 min. at 37° C. Cells were pelleted, washed and lysed in 100 ul lysis buffer (50 mM Hepes, 150 mM NaCl, 10% Glycerol, 1% Triton-X-100, 10 mM NaF, 1 mM EDTA, 1.5 mM MgCl2, 10 mM NaPyrophosphate) supplemented with phosphatase (Sigma Cat# P2850) and protease inhibitors (Sigma Cat #P8340). Lysates were cleared by centrifugation at 1000×g for 5 minutes at 4° C. Cell lysates were transferred to white wall 96 well microtiter (Costar #9018) plates coated with 50 ng/well anti-FLT3 antibody (Santa Cruz Cat# sc-480) and blocked with SeaBlock reagent (Pierce Cat#37527). Lysates were incubated at 4° C. for 2 hours. Plates were washed 3× with 200 ul/well PBS/0.1% Triton-X-100. Plates were then incubated with 1:8000 dilution of HRP-conjugated anti-phosphotyrosine antibody (Clone 4G10, Upstate Biotechnology Cat#16-105) for 1 hour at room temperature. Plates were washed 3× with 200 ul/well PBS/0.1% Triton-X-100. Signal detection with Super Signal Pico reagent (Pierce Cat#37070) was done according to manufacturer's instruction with a Berthold microplate luminometer. All data points are an average of triplicate samples. […] Inhibition and IC50 data analysis was done with GraphPad Prism using a non-linear regression fit with a multiparamater, sigmoidal dose-response (variable slope) equation.

`CO/N=C/c1c(N)ncnc1N1CCC(OC(=O)Nc2ccc(OC(C)C)cc2)CC1` [Number 1, (4-Isopropoxy-phenyl)-carbamic acid 1-[6-amino-5-(methoxyimino-methyl)-pyrimidin-4-yl]-piperidin-4-yl ester] returned an IC50 of 204 nM.
The result for `CO/N=C/c1c(N)ncnc1N1CCC(NC(=O)Nc2ccc(N3CCOCC3)cc2)C1` (stereo not shown) [Number 10, 1-{1-[6-Amino-5-(methoxyimino-methyl)-pyrimidin-4-yl]-pyrrolidin-3-yl}-3-(4-morpholin-4-yl-phenyl)-urea] reads 1300 nM; that for `CO/N=C/c1c(N)ncnc1N1CCC(NC(=O)Nc2ccc(C3CCCCC3)cc2)CC1` [Number 22, 1-{1-[6-Amino-5-(methoxyimino-methyl)-pyrimidin-4-yl]-piperidin-4-yl}-3-(4-cyclohexyl-phenyl)-urea], 40 nM; that for `CO/N=C/c1c(N)ncnc1N1CCC(NC(=O)Nc2ccc(C3CCCCC3)cc2)C1` (stereo not shown) [Number 17, 1-{1-[6-Amino-5-(methoxyimino-methyl)-pyrimidin-4-yl]-pyrrolidin-3-yl}-3-(4-cyclohexyl-phenyl)-urea], 299 nM.
As for `CO/N=C/c1c(N)ncnc1N1CCC(NC(=O)Nc2ccc(N3CCCCC3)cc2)CC1` [Number 13, 1-{1-[6-Amino-5-(methoxyimino-methyl)-pyrimidin-4-yl]-piperidin-4-yl}-3-(4-piperidin-1-yl-phenyl)-urea], the IC50 amounted to 468 nM.
For the compound `CO/N=C/c1c(N)ncnc1N1CCC(NC(=O)Nc2ccc(OC3CCCC3)nc2)CC1` [Number 23, 1-{1-[6-Amino-5-(methoxyimino-methyl)-pyrimidin-4-yl]-piperidin-4-yl}-3-(6-cyclopentyloxy-pyridin-3-yl)-urea], half-maximal inhibition (IC50) was put at 35 nM.
The result for `CO/N=C/c1c(N)ncnc1N1CCC(NC(=O)Nc2ccc(Cl)cc2)C1` (stereo not shown) [Number 18, 1-{1-[6-Amino-5-(methoxyimino-methyl)-pyrimidin-4-yl]-pyrrolidin-3-yl}-3-(4-chloro-phenyl)-urea] reads 309 nM.
The result for `CCNC(=O)NCCO/N=C/c1c(N)ncnc1N1CCC(NC(=O)Nc2ccc(C(C)C)cc2)C1` (stereo not shown) [Number 28, 1-[1-(6-Amino-5-{[2-(3-ethyl-ureido)-ethoxyimino]-methyl}-pyrimidin-4-yl)-pyrrolidin-3-yl]-3-(4-isopropyl-phenyl)-urea] reads 2300 nM; that for `CO/N=C/c1c(N)ncnc1N1CCC(NC(=O)Nc2ccc(Oc3ccccc3)cc2)CC1` [Number 26, 1-{1-[6-Amino-5-(methoxyimino-methyl)-pyrimidin-4-yl]-piperidin-4-yl}-3-(4-phenoxy-phenyl)-urea], 175 nM.
The result for `CO/N=C/c1c(N)ncnc1N1CCC(NC(=O)Nc2ccc(OC(C)C)cc2)CC1` [Number 12, 1-{1-[6-Amino-5-(methoxyimino-methyl)-pyrimidin-4-yl]-piperidin-4-yl}-3-(4-isopropoxy-phenyl)-urea] reads 217 nM.
Compound `CC(C)c1ccc(NC(=O)NC2CCN(c3ncnc(N)c3/C=N/OCC(=O)N3CCOCC3)C2)cc1` (stereo not shown) [Number 29, 1-(1-{6-Amino-5-[(2-morpholin-4-yl-2-oxo-ethoxyimino)-methyl]-pyrimidin-4-yl}-pyrrolidin-3-yl)-3-(4-isopropyl-phenyl)-urea] showed an IC50 of 2400 nM.
The result for `CC(C)Oc1ccc(NC(=O)OC2CCN(c3ncnc(N)c3/C=N/OCCCN(C)C)CC2)cc1` [Number 4, (4-Isopropoxy-phenyl)-carbamic acid 1-{6-amino-5-[(3-dimethylamino-propoxyimino)-methyl]-pyrimidin-4-yl}-piperidin-4-yl ester] reads 345 nM.
The result for `CO/N=C/c1c(N)ncnc1N1CCC(CC(=O)Nc2ccc(C(C)C)cc2)CC1` [Number 7, 2-{1-[6-Amino-5-(methoxyimino-methyl)-pyrimidin-4-yl]-piperidin-4-yl}-N-(4-isopropyl-phenyl)-acetamide] reads 169 nM.
Regarding `CO/N=C/c1c(N)ncnc1N1CCC(NC(=O)Nc2ccc(OC3CCCC3)nc2)C1` (stereo not shown) [Number 21, 1-{1-[6-Amino-5-(methoxyimino-methyl)-pyrimidin-4-yl]-pyrrolidin-3-yl}-3-(6-cyclopentyloxy-pyridin-3-yl)-urea], the midpoint of inhibition, the IC50, lay at 99 nM.
The result for `CO/N=C/c1c(N)ncnc1N1CCC(OC(=O)Nc2ccc(C(C)C)cc2)CC1` [Number 5, (4-Isopropyl-phenyl)-carbamic acid 1-[6-amino-5-(methoxyimino-methyl)-pyrimidin-4-yl]-piperidin-4-yl ester] reads 4 nM.
The result for `CO/N=C/c1c(N)ncnc1N1CCC(NC(=O)Nc2ccc(N3CCCC3)cc2)C1` (stereo not shown) [Number 20, 1-{1-[6-Amino-5-(methoxyimino-methyl)-pyrimidin-4-yl]-pyrrolidin-3-yl}-3-(4-pyrrolidin-1-yl-phenyl)-urea] reads 299 nM.
The compound `CO/N=C/c1c(N)ncnc1N1CCC(CC(=O)Nc2ccc(C(C)C)cc2)C1` (stereo not shown) [Number 6, 2-{1-[6-Amino-5-(methoxyimino-methyl)-pyrimidin-4-yl]-pyrrolidin-3-yl}-N-(4-isopropyl-phenyl)-acetamide] showed an IC50 of 15 nM.
The result for `CO/N=C/c1c(N)ncnc1N1CCC(NC(=O)Nc2ccc(N3CCOCC3)cc2)CC1` [Number 14, 1-{1-[6-Amino-5-(methoxyimino-methyl)-pyrimidin-4-yl]-piperidin-4-yl}-3-(4-morpholin-4-yl-phenyl)-urea] reads 292 nM.
The result for `CO/N=C/c1c(N)ncnc1N1CCC(NC(=O)Nc2ccc(OC3CCC3)nc2)CC1` [Number 15, 1-{1-[6-Amino-5-(methoxyimino-methyl)-pyrimidin-4-yl]-piperidin-4-yl}-3-(6-cyclobutoxy-pyridin-3-yl)-urea] reads 195 nM; that for `CO/N=C/c1c(N)ncnc1N1CCC(NC(=O)Nc2ccc(OC(C)C)cc2)C1` (stereo not shown) [Number 8, 1-{1-[6-Amino-5-(methoxyimino-methyl)-pyrimidin-4-yl]-pyrrolidin-3-yl}-3-(4-isopropoxy-phenyl)-urea], 176 nM; that for `CO/N=C/c1c(N)ncnc1N1CCC(NC(=O)Nc2ccc(OC3CCC3)nc2)C1` (stereo not shown) [Number 11, 1-{1-[6-Amino-5-(methoxyimino-methyl)-pyrimidin-4-yl]-pyrrolidin-3-yl}-3-(6-cyclobutoxy-pyridin-3-yl)-urea], 229 nM.
The result for `CCO/N=C/c1c(N)ncnc1N1CCC(OC(=O)Nc2ccc(OC(C)C)cc2)CC1` [Number 2, (4-Isopropoxy-phenyl)-carbamic acid 1-[6-amino-5-(ethoxyimino-methyl)-pyrimidin-4-yl]-piperidin-4-yl ester] reads 74 nM.

The term IC50 denotes the concentration that inhibits the measured activity by half.
